Test results published in US4115065A, “Saturation analysis of folate compound with selenium-75 labeled folate” (The Radiochemical Centre Limited, priority 1973, dated 1978).
Values joined by “and” are separate entries in the source; they are usually repeats but may differ in a detail not shown here. Equal values may be shown once.

Assays:
[1] = test system: porcine serum as binding protein; experiment: Example 11: saturation assay, Se75 pteroyl-L-selenomethionine label, folic acid standards, porcine serum binder; conditions: 0.5 ng label, porcine serum 30 μl
Experimental: (§1) Standard solutions of N^5 -methyltetrahydrofoate containing 0, 0.25, 0.5, 1, 2 and 4 ng in phosphate-albumin buffer (200 μl) were pipetted in assay tubes. Buffer was also added to `total` and `blank` tubes (400 and 300 μl respectively). To each tube was added pteroyl-L-methylselenocysteine-Se75 (0.5 ng, sp. act. ca 0.24 Ci/m.mole) in 100 μl of buffer. Immediately afterwards β-lactoglobulin (100 μg) in 100 μl of buffer was added to all tubes except the blanks. After 60 minutes incubation at room temperature, a suspension of albumin-coated charcoal in buffer (200 μl) was added at 4° C. to all tubes except the totals. The tubes were centrifuged (2000g for 10 minutes) and the supernate was counted for 300 seconds in an NE8312 beta-gamma counter.
(§2) Results are expressed in terms of [formula]
(§3) The protocol of example 4 was used except that Se75-pteroyl-L-selenomethionine (0.5ng, sp. act. ca 2.25 Ci/m.mole) was substituted as label for Se75-pteroyl-L-methylselenocysteine.
The protocol of example 6 was used except that folic acid was substituted for N^5 -methyltetrahydrofolate as standard.
The protocol of example 10 was used except that a solution containing 30 μl of porcine serum and 70 μl of buffer was substituted for β-lactoglobulin as binding protein.

[2] = test system: rabbit anti folic acid antiserum; experiment: Example 13: radioimmunoassay for folic acid, Se75 pteroyl-L-selenomethionine label; assay type: binding; conditions: 0.5 ng label
Experimental: (§4) Standard solutions of folic acid containing 0, 0.25, 0.5, 1, 2 and 4 ng in phosphate-albumin buffer (200 μl) were pipetted into assay tubes. Buffer was also added to `total` and `blank` tubes (400 and 300 μl respectively). To each tube was added Se75-pteroyl-L-methylselenocysteine (0.5 ng, sp. act. ca 0.24 Ci/m.mole) in 100 μl of buffer. Immediately afterwards was added, to all tubes except the blanks, 100 μl of buffer containing 2 μl of a 1/15000 titre rabbit anti folic acid antiserum, raised against a conjugate of folic acid with serum albumin.
(§5) After 60 minutes incubation at room temperature, a suspension of albumin-coated charcoal in buffer (200 μl) was added at 4° C. to all tubes except the totals. The tubes were centrifuged (2000g for 10 minutes) and the supernate was counted for 300 seconds.
The protocol of example 12 was used except that Se75-pteroyl-L-selenomethionine (0.5ng, sp. act. ca 2.25 Ci/m.mole) was substituted for Se-75-pteroyl-L-methylselenocysteine as label

β-lactoglobulin [3] = target: T1, β-lactoglobulin (Bos taurus, UniProt P02702); experiment: Example 6: saturation assay, Se75 pteroyl-L-selenomethionine label, N5-methyltetrahydrofolate standards; assay type: binding; conditions: 0.5 ng label
Experimental: as §1, §2, §3
Target sequence in this assay (P02702 20-234 limits assumed): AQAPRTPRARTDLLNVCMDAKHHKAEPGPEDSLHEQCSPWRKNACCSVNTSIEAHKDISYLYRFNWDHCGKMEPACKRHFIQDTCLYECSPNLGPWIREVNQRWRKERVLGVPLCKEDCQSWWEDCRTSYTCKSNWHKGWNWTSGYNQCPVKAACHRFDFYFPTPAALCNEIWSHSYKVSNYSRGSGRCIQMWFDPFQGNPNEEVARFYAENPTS

[4] = test system: porcine serum as binding protein; experiment: Example 7: saturation assay, Se75 pteroyl-L-selenomethionine label, N5-methyltetrahydrofolate standards, porcine serum binder; conditions: 0.5 ng label, porcine serum 30 μl
Experimental: as §1, §2, §3
The protocol of example 6 was used except that a solution of porcine serum (30 μl) in buffer (70 μl) was substituted for β-lactoglobulin as binding protein.

[5] = test system: porcine serum as binding protein; experiment: Example 8: saturation assay, Se75 pteroyl-L-methylselenocysteine label, N5-methyltetrahydrofolate standards, porcine serum binder; conditions: 0.5 ng label, porcine serum 30 μl
Experimental: as §1, §2
(§6) The protocol of example 4 was used except that a solution (100 μl) containing 30 μl of porcine serum and 70 μl of buffer was used instead of β-lactoglobulin as binding protein.

[6] = test system: porcine serum as binding protein; experiment: Example 9: saturation assay, Se75 pteroyl-L-methylselenocysteine label, folic acid standards, porcine serum binder; conditions: 0.5 ng label, porcine serum 30 μl
Experimental: as §1, §2, §6
The protocol of example 8 was used except that folic acid was substituted for N^5 -methyltetrahydrofolate as standard

[7] = test system: rabbit anti folic acid antiserum; experiment: Example 12: radioimmunoassay for folic acid, Se75 pteroyl-L-methylselenocysteine label; assay type: binding; conditions: 0.5 ng label, 2 μl rabbit anti folic acid antiserum
Experimental: as §4, §5

β-lactoglobulin [8] = target: T1, β-lactoglobulin; experiment: Example 5: saturation assay, Se75 pteroyl-L-methylselenocysteine label, folic acid standards; assay type: binding; conditions: 0.5 ng label, β-lactoglobulin 100 μg
Experimental: as §1, §2
Target sequence in this assay (P02702 20-241): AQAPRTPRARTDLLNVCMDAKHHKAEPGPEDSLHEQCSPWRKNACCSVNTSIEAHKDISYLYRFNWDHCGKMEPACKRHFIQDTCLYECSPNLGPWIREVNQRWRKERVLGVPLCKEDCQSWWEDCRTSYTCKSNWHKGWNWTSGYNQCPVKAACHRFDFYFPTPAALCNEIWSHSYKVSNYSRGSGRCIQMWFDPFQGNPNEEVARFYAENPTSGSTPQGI
The protocol of example 4 was used except that folic acid was used as the standard instead of N^5 -methyltetrhydrofolate

β-lactoglobulin [9] = target: T1, β-lactoglobulin; experiment: Example 4: saturation assay for folates, Se75 pteroyl-L-methylselenocysteine label, N5-methyltetrahydrofolate standards; assay type: binding; conditions: 0.5 ng label, β-lactoglobulin 100 μg
Experimental: as §1, §2
Target sequence in this assay (P02702 20-234 limits assumed): as the sequence (P02702 20-234 limits assumed) above

[10] = 0.25 ng N5 methyltetrahydrofolate
[11] = 0.5 ng N5 methyltetrahydrofolate

## C[75Se]CC[C@H](NC(=O)c1ccc(NCc2cnc3nc(N)[nH]c(=O)c3n2)cc1)C(=O)O [Se75-pteroyl-L-selenomethionine, N-Pteroyl-L-selenomethionine-Se75]
[1]; 0 ng folic acid
  Percent of labelled folate bound: 35.7%
[1]; 0.25 ng folic acid
  Percent of labelled folate bound: 20.3% and 21.1%
[1]; 0.5 ng folic acid
  Percent of labelled folate bound: 18.4% and 20.9%
[1]; 1 ng folic acid
  Percent of labelled folate bound: 16.8% and 17.3%
[1]; 2 ng folic acid
  Percent of labelled folate bound: 13.0% and 13.9%
[1]; 4 ng folic acid
  Percent of labelled folate bound: 12.6% and 15.2%
[2]; 0 ng folic acid
  Percent of labelled folate bound: 42.2%
[2]; 0.25 ng folic acid
  Percent of labelled folate bound: 25.7% and 27.6%
[2]; 0.5 ng folic acid
  Percent of labelled folate bound: 22.1% and 19%
[2]; 1 ng folic acid
  Percent of labelled folate bound: 20.8% and 21.9%
[2]; 2 ng folic acid
  Percent of labelled folate bound: 16.7% and 15.5%
[2]; 4 ng folic acid
  Percent of labelled folate bound: 16% and 13.7%
β-lactoglobulin [3]; 0 ng N5 methyltetrahydrofolate
  Percent of labelled folate bound: 49.9%
β-lactoglobulin [3]; [10]
  Percent of labelled folate bound: 39.3% and 36.1%
β-lactoglobulin [3]; [11]
  Percent of labelled folate bound: 35.9% and 37.3%
β-lactoglobulin [3]; 1 ng N5 methyltetrahydrofolate
  Percent of labelled folate bound: 32.6% and 33.0%
β-lactoglobulin [3]; 2 ng N5 methyltetrahydrofolate
  Percent of labelled folate bound: 25.9%
β-lactoglobulin [3]; 4 ng N5 methyltetrahydrofolate
  Percent of labelled folate bound: 25.4% and 24.1%
[4]; 0 mg N5 methyltetrahydrofolate
  Percent of labelled folate bound: 36.4%
[4]; 4 ng N5 methyltetrahydrofolate
  Percent of labelled folate bound: 15.5% and 15.6%
[4]; 0.25 mg N5 methyltetrahydrofolate
  Percent of labelled folate bound: 21.3%
[4]; 0.5 mg N5 methyltetrahydrofolate
  Percent of labelled folate bound: 17.2% and 17.1%
[4]; 1 mg N5 methyltetrahydrofolate
  Percent of labelled folate bound: 20.7% and 18.5%
[4]; 2 mg N5 methyltetrahydrofolate
  Percent of labelled folate bound: 19.3% and 17.2%

## C[75Se]C[C@H](NC(=O)c1ccc(NCc2cnc3nc(N)[nH]c(=O)c3n2)cc1)C(=O)O [pteroyl-L-methylselenocysteine-Se75, N-Pteroyl-Se-methyl-L-selenocysteine-Se75]
[5]; 0 ng N5 methyltetrahydrofolate
  Percent of labelled folate bound: 89.3%
[5]; [10]
  Percent of labelled folate bound: 61.4% and 52.0%
[5]; [11]
  Percent of labelled folate bound: 43.3% and 48.1%
[5]; 1 ng N5 methyltetrahydrofolate
  Percent of labelled folate bound: 41.2% and 38.9%
[5]; 2 ng N5 methyltetrahydrofolate
  Percent of labelled folate bound: 40.9% and 39.3%
[5]; 4 ng N5 methyltetrahydrofolate
  Percent of labelled folate bound: 34.5% and 31.0%
[6]; 0 ng folic acid
  Percent of labelled folic acid bound to porcine serum: 92.7%
[6]; 0.25 ng folic acid
  Percent of labelled folic acid bound to porcine serum: 67.1% and 68.7%
[6]; 0.5 ng folic acid
  Percent of labelled folic acid bound to porcine serum: 60.9% and 43%
[6]; 1 ng folic acid
  Percent of labelled folic acid bound to porcine serum: 26.2% and 31.3%
[6]; 2 ng folic acid
  Percent of labelled folic acid bound to porcine serum: 28.0% and 28.3%
[6]; 4 ng folic acid
  Percent of labelled folic acid bound to porcine serum: 9% and 2.6%
[7]; 0 ng folic acid
  Percent of labelled folate bound to antiserum: 97.6%
[7]; 0.25 ng folic acid, listed as Se75-pteroyl-L-methylselenocysteine
  Percent of labelled folate bound to antiserum: 72.4% and 90.9%
[7]; 0.5 ng folic acid, listed as Se75-pteroyl-L-methylselenocysteine
  Percent of labelled folate bound to antiserum: 52.5% and 70.3%
[7]; 1 ng folic acid, listed as Se75-pteroyl-L-methylselenocysteine
  Percent of labelled folate bound to antiserum: 50.1% and 35.3%
[7]; 2 ng folic acid, listed as Se75-pteroyl-L-methylselenocysteine
  Percent of labelled folate bound to antiserum: 20.1% and 29.6%
[7]; 4 ng folic acid, listed as Se75-pteroyl-L-methylselenocysteine
  Percent of labelled folate bound to antiserum: 20.1% and 12.8%
β-lactoglobulin [8]; 0 ng folic acid
  percentage of labelled folate bound: 95.5%
β-lactoglobulin [8]; 0.25 ng folic acid
  percentage of labelled folate bound: 86.1% and 85.6%
β-lactoglobulin [8]; 0.5 ng folic acid
  percentage of labelled folate bound: 67.7% and 82.5%
β-lactoglobulin [8]; 1 ng folic acid
  percentage of labelled folate bound: 45.5% and 41.4%
β-lactoglobulin [8]; 2 ng folic acid
  percentage of labelled folate bound: 28.1% and 32.6%
β-lactoglobulin [8]; 4 ng folic acid
  percentage of labelled folate bound: 10.4%
β-lactoglobulin [9]; 0 ng N5 methyltetrahydrofolate, 60 minutes room temperature
  percentage of labelled folate bound: 94%
β-lactoglobulin [9]; [10]
  percentage of labelled folate bound: 81.8% and 78.0%
β-lactoglobulin [9]; [11]
  percentage of labelled folate bound: 81.4%
β-lactoglobulin [9]; 1 ng N5 methyltetrahydrofolate
  percentage of labelled folate bound: 78.3% and 78.6%
β-lactoglobulin [9]; 2 ng N5 methyltetrahydrofolate
  percentage of labelled folate bound: 51.3% and 58.0%
β-lactoglobulin [9]; 4 ng N5 methyltetrahydrofolate
  percentage of labelled folate bound: 44.4% and 34.1%
